Literature values, collected in patent US20150031737A1, “STABILIZED CONTROLLED-RELEASE PHARMACEUTICAL COMPOSITION COMPRISING GLICLAZIDE” (RANBAXY LABORATORIES LIMITED, priority 2012, published 2015).

For `Cc1ccc(S(=O)(=O)NC(=O)NN2CC3CCCC3C2)cc1` (stereo not shown) [Gliclazide], the pKa is listed as “about 5.8”.
